One test has as its target c-Myc template DNA (c-myc quadruplex). Nature of the test: Quadruplex binding / stop assay (Taq polymerase arrest, capillary electrophoresis). The settings on record: read-out: S DATA; Table 1D, stop assay data.
Description: A high throughput polymerase arrest assay has been developed. The assay comprises contacting a template nucleic acid, often DNA, with a primer, which also is often DNA; contacting the primer/template complex with a compound described herein (also referred to as a “test compound”); contacting the primer/template complex with a polymerase; and separating reaction products. The assay often includes the step of denaturing the primer/template complex mixture and then renaturing the complex, which often is carried out before a test molecule is added to the system. Multiple assays often are carried out using varying concentrations of a test compound, such that an IC50 value can be obtained, for example. The reaction products often include extended primers of different lengths.
Thus, the reaction mixture often includes at least two reaction products when a test compound interacts with a quadruplex structure in the template, one having a completely extended primer and one having an incompletely extended primer, and these two reaction products are separated. The products may be separated using any convenient separation method, such as mass spectrometry and in one embodiment, capillary electrophoresis.
In an embodiment, a primer oligonucleotide covalently linked to a fluorescent label is contacted with template DNA. The resulting complex is contacted with a test molecule and then contacted with a polymerase capable of extending the primer. The reaction products then are separated and detected by capillary electrophoresis. A longer primer sequence was used for practicing this embodiment as compared to embodiments where the primer includes no covalently-linked fluorophore or where capillary electrophoresis is not utilized for separation. Deoxynucleotides are added at any stage of the assay before the separation, often when the primer is contacted with the template DNA. The template DNA/primer complex often is denatured (e.g., by increasing the temperature of the system) and then renatured (e.g., by cooling the system) before a test compound is added).
The mixture was denatured at 95° C. for 5 minutes and, after cooling down to room temperature, was incubated at 37° C. for 15 minutes.
After cooling down to room temperature, 1 mM KCl and the test compound (various concentrations) were added and the mixture incubated for 15 minutes at room temperature. The primer extension was performed by adding 10 mM KCl and Taq DNA Polymerase (2.5 U/reaction, Promega) and incubating at 70° C. for 30 minutes. The reaction was stopped by adding 1 μl of the reaction mixture to 10 μl Hi-Di Formamide mixed and 0.25 μl LIZ120 size standard. Hi-Di Formamide and LIZ120 size standard were purchased from Applied Biosystems.
The partially extended quadruplex arrest product was between 61 or 62 bases long and the full-length extended product was 99 bases long. The products were separated and analyzed using capillary electrophoresis. Capillary electrophoresis was performed using an ABI PRISM 3100-Avant Genetic Analyzer.
Stop Assays. […] A fluorescently labeled primer DNA is then annealed to the 3′ end of the template DNA. A DNA polymerase such as Taq polymerase is then introduced to synthesize a complementary strand of DNA by extending from the fluorescently labeled primer. When the progress of the Taq polymerase is unhindered, it synthesizes a full-length copy of the template.
These products are visualized by capillary electrophoresis.
For the compound `O=C(NCCN1CCCC1)c1cn2c3c(c(N4CCN(Cc5ccc[nH]5)CC4)c(F)cc3c1=O)Oc1cc(Cl)ccc1-2` [compound 1833], the IC50 came to 10 µM.

For `NC1CCN(c2c(F)cc3c(=O)c(C(=O)NCC4CC4)cn4c3c2Oc2cc3ccccc3cc2-4)C1` (centres unmarked) [compound 1700], the IC50 was above 15 µM.

Turning to `NC1CCN(c2c(F)cc3c(=O)c(C(=O)NCCCN4CCCC4=O)cn4c3c2Oc2cc3ccccc3cc2-4)C1` (centres unmarked) [compound 1694], the IC50 was above 15 µM.

Turning to `CCN(CC)C(=O)C1CCCN(c2c(F)cc3c(=O)c(C(=O)NCCC4CCCN4C)cn4c3c2Oc2cc3ccccc3cc2-4)C1` (centres unmarked) [compound 1479], the IC50 stood at 1.75 µM.

Regarding `COc1ccccc1CCNc1c(F)cc2c(=O)c(C(=O)NCCC3CCCN3C)cn3c2c1Oc1cc2ccccc2cc1-3` (centres unmarked) [compound 1684], the IC50 is above 15 µM.

Consider `CN(C)CCCCNc1ccc2c(=O)c(C(=O)NCCN3CCCC3)cn3c2c1Oc1cc2ccccc2cc1-3` [compound 1540], for which the IC50 came out at 1 µM.

Regarding `CCOC(CCCNc1c(F)cc2c(=O)c(C(=O)NCCC3CCCN3C)cn3c2c1Oc1cc2ccccc2cc1-3)OCC` (centres unmarked) [compound 1674], the IC50 turned out to be 0.75 µM.

With `CCN(CC)CCCCNC(=O)c1cn2c3c(c(N4CCC(N)C4)c(F)cc3c1=O)Oc1ccc(Cl)cc1-2` (centres unmarked) [compound 1803], the IC50 amounted to 3 µM.

For the compound `CN1CCCC1CCNC(=O)c1cn2c3c(c(NCC(O)CO)c(F)cc3c1=O)Oc1cc3ccccc3cc1-2` (centres unmarked) [compound 1677], the IC50 stood at 1.75 µM.

As to `CC(C)N1CCN(c2c(F)cc3c(=O)c(C(=O)NCCCN4CCOCC4)cn4c3c2Oc2ccccc2-4)CC1` [compound 1561], the IC50 was above 15 µM.

As to `CN(C)CCCNc1c(F)cc2c(=O)c(C(=O)NCCC3CCCN3C)cn3c2c1Oc1cc2ccccc2cc1-3` (centres unmarked) [compound 1500], the IC50 came to 0.75 µM.

As to `CC(C)N1CCN(c2c(F)cc3c(=O)c(C(=O)NCCCCN(C)C)cn4c3c2Oc2ccccc2-4)CC1` [compound 1567], the IC50 was above 15 µM.

As for `O=C(NCCN1CCOCC1)c1cn2c3c(c(NCCN4CCCC4)c(F)cc3c1=O)Oc1ccccc1-2` [compound 1593], the IC50 was above 15 µM.

`CN1CCN(CCCNc2c(F)cc3c(=O)c(C(=O)N4CCC(N5CCCC5)CC4)cn4c3c2Oc2ccccc2-4)CC1` [compound 1581]: the IC50 was above 15 µM.

As for `O=C(NCCN1CCCC1)c1cn2c3c(c(NCCN4CCOCC4)c(F)cc3c1=O)Oc1ccccc1-2` [compound 1609], the IC50 is above 15 µM.

As to `O=c1c2cn3c4ccccc4oc4c(N5CCC(c6cnccn6)C5)c(F)cc(c2nn1CCN1CCCC1)c43` (centres unmarked) [compound 1772], the IC50 was 14.1 µM.

Take `O=C(NCCN1CCOCC1)c1cn2c3c(c(N4CCC(c5cnccn5)C4)c(F)cc3c1=O)Oc1ccc(Cl)cc1-2` (centres unmarked) [compound 1789]: the IC50 was above 15 µM.

`CN1CCCC1CCNC(=O)c1cn2c3c(c(NCCCO)c(F)cc3c1=O)Oc1cc3ccccc3cc1-2` (centres unmarked) [compound 1678]: the IC50 amounted to 1.75 µM.

In the case of `CN1CCCC1CCNC(=O)c1cn2c3c(c(NCCCNC(=O)OC(C)(C)C)c(F)cc3c1=O)Oc1cc(Cl)ccc1-2` (centres unmarked) [compound 1808], the IC50 was above 15 µM.

In the case of `CN1CCCC1CCNC(=O)c1cn2c3c(c(N4CCN(c5ncccn5)CC4)c(F)cc3c1=O)Oc1cc(Cl)ccc1-2` (centres unmarked) [compound 1810], the IC50 stood at 7.8 µM.

Regarding `CC1(C)CC(NC(=O)c2cn3c4c(c(N5CCC(NC(=O)OC(C)(C)C)C5)c(F)cc4c2=O)Oc2ccccc2-3)CC(C)(C)N1` (centres unmarked) [compound 1591], the IC50 was above 15 µM.

`CC(C)(C)OC(=O)NC1CCN(c2c(F)cc3c(=O)c(C(=O)NCCCCNC(=N)N)cn4c3c2Oc2ccccc2-4)C1` (centres unmarked) [compound 1632]: the IC50 was above 15 µM.

Turning to `CN1CCN(CCCNC(=O)c2cn3c4c(c(NCCN5CCOCC5)c(F)cc4c2=O)Oc2ccccc2-3)CC1` [compound 1606], the IC50 was above 15 µM.

For `CN1CCCC1CCNC(=O)c1cn2c3c(c(NCC4CCN(C(=O)OC(C)(C)C)C4)c(F)cc3c1=O)Oc1cc3ccccc3cc1-2` (centres unmarked) [compound 1506], the IC50 turned out to be 0.75 µM.

Still in this test, the particulars now being: read-out: Stop Data c-Myc μM; concentration at which 50% of the DNA was arrested (arrested:full-length 1:1).
For `CC1(C)CC(NC(=O)c2cn3c4c(c(N5CCC(N)C5)c(F)cc4c2=O)Oc2cc4ccccc4cc2-3)CC(C)(C)N1` (centres unmarked) [compound 444], the IC50 is 0.75 µM.

For `CCN(CC)C(=O)C1CCCN(c2c(F)cc3c(=O)c(C(=O)NCCC4CCCN4C)cn4c3c2Oc2cc3ccccc3cc2-4)C1` (centres unmarked) [compound 250], the IC50 worked out at 1.75 µM.

On to `O=C(NCCCn1ccnc1)c1cn2c3c(c(NCCN4CCCC4)c(F)cc3c1=O)Oc1c-2ccc2ccccc12` [compound 140], for which the IC50 is 1.75 µM.

With `CN1CCN(CCCNC(=O)c2cn3c4cc5c(=O)c6ccccc6c(=O)c5cc4oc4c(NCCN5CCCC5)c(F)cc(c2=O)c43)CC1` [compound 491], the IC50 worked out at 0.45 µM.

Consider `CN(C)CCCCNC(=O)c1cn2c3cc4c(cc3oc3c(NCCC5CCCN5C)c(F)cc(c1=O)c32)c(=O)c1ccccc14` (centres unmarked) [compound 423], for which the IC50 came to 0.75 µM.

Take `CN1CCCC1CCNCC(=O)N[C@@H]1CCN(c2c(F)cc3c(=O)c(C(=O)NCCC4CCCN4C)cn4c3c2Oc2cc3c(cc2-4)oc2ccccc23)C1` (some centres unmarked) [compound 410]: the IC50 is 0.75 µM.

In the case of `CC(C)(C)OC(=O)N[C@H]1CCN(c2c(F)cc3c(=O)c(C(=O)NCCN4CCCC4)cn4c5cc6c(cc5oc2c34)c(=O)c2ccccc26)C1` [compound 202], the IC50 came out at 1.75 µM.

For `CN(C)CC(C)(C)CNC(=O)c1cn2c3c(c(N4CCC(N)C4)c(F)cc3c1=O)Oc1cc3ccccc3cc1-2` (centres unmarked) [compound 329], the IC50 came to 1 µM.

Turning to `CN(C)CCCCNc1c(F)cc2c(=O)c(C(=O)NCCN3CCOCC3)cn3c2c1Oc1cc2c(cc1-3)oc1ccccc12` [compound 163], the IC50 stood at 1.75 µM.

Turning to `CN1CCN(CCCNC(=O)c2cn3c4cc5c(=O)c6ccccc6c(=O)c5cc4oc4c(N5CCN(C)CC5)c(F)cc(c2=O)c43)CC1` [compound 352], the IC50 was found to be 0.9 µM.

For `CC(C)(C)OC(=O)NC1CCN(c2c(F)cc3c(=O)c(C(=O)NCCCCN4CCCC4)cn4c3c2Oc2cc3ccccc3cc2-4)C1` (centres unmarked) [compound 323], the IC50 was 1 µM.

Take `CN(C)CCCCNC(=O)c1cn2c3c(c(N)c(F)c(NCCCN4CCOCC4)c3c1=O)Oc1cc3ccccc3cc1-2` [compound 192]: the IC50 was 1.75 µM.

Regarding `CN1CCCC1CCNC(=O)c1cn2c3c(c(NCCCNC(=O)OC(C)(C)C)c(F)cc3c1=O)Oc1cc3ccccc3cc1-2` (centres unmarked) [compound 297], the IC50 came out at 1.75 µM.

In the case of `N=C(N)NCCNC(=O)c1cn2c3c(c(NCCN4CCCC4)c(F)cc3c1=O)Oc1cc3ccccc3cc1-2` [compound 561], the IC50 was 0.34 µM.

With `O=C(Nc1nc2ccccc2s1)c1cn2c3c(c(NCCN4CCCC4)c(F)cc3c1=O)Oc1ccccc1-2` [compound 118], the IC50 stood at 1.75 µM.

As to `CC(C)(C)OC(=O)N[C@@H]1CCN(c2c(F)cc3c(=O)c(C(=O)NCCCN4CCOCC4)cn4c3c2Oc2cc3ccccc3cc2-4)C1` [compound 62], the IC50 was determined as 2.5 µM.

`C[C@H](O)CNc1c(F)cc2c(=O)c(C(=O)NCCC3CCCN3C)cn3c2c1Oc1cc2ccccc2cc1-3` (some centres unmarked) [compound 294]: the IC50 turned out to be 1.75 µM.

Turning to `CN(C)CCCCNCCC(=O)N[C@@H]1CCN(c2c(F)cc3c(=O)c(C(=O)N4CCOCC4)cn4c3c2Oc2cc3c(cc2-4)oc2ccccc23)C1` [compound 177], the IC50 stood at 1.75 µM.

Regarding `CN1CCN(CCCNC(=O)c2cn3c4c(c(N5CC[C@@H](N)C5)c(F)cc4c2=O)Oc2c-3ccc3ccccc23)CC1` [compound 304], the IC50 came out at 1.13 µM.

Consider `CN(C)CCCCNC(=O)c1cn2c3c(c(NCCCN4CCOCC4)c(F)c(N)c3c1=O)Oc1cc3ccccc3cc1-2` [compound 220], for which the IC50 was determined as 1.75 µM.

Turning to `CN(CCCNc1c(F)cc2c(=O)c(C(=O)NCCC3CCCN3C)cn3c2c1Oc1cc2ccccc2cc1-3)c1ccccc1` (centres unmarked) [compound 263], the IC50 turned out to be 1.75 µM.

On to `N=C(N)NCCCCNC(=O)c1cn2c3c(c(NCCN4CCCC4)c(F)cc3c1=O)Oc1cc3ccccc3cc1-2` [compound 334], for which the IC50 was determined as 1 µM.

For `O=C(O)c1cn2c3cc4oc5cc([N+](=O)[O-])ccc5[nH]c4cc3oc3c(NCCCN4CCOCC4)c(F)cc(c1=O)c32` [compound 18], the IC50 was 0.75 µM.

For the compound `CN1CCCC1CCNC(=O)c1cn2c3c(c(NC4CC(C)(C)NC(C)(C)C4)c(F)cc3c1=O)Oc1cc3ccccc3cc1-2` (centres unmarked) [compound 325], the IC50 was found to be 1 µM.

Turning to `CN(C)CCCCNC(=O)c1cn2c3c(c(NCCC4CCCN4C)ccc3c1=O)Oc1cc3ccccc3cc1-2` (centres unmarked) [compound 450], the IC50 was 0.75 µM.

As for `CN1CCCC1CCNc1c(F)cc2c(=O)c(C(=O)N3CCC(N)C3)cn3c4cc5c(=O)c6ccccc6c(=O)c5cc4oc1c23` (centres unmarked) [compound 93], the IC50 was determined as 2.5 µM.

As to `CN1CCN(CCCNc2c(F)cc3c(=O)c(C(=O)O)cn4c3c2Oc2cc3ccccc3cc2-4)CC1` [compound 398], the IC50 was 0.75 µM.

`CC1CCCC(C)N1CCCNC(=O)c1cn2c3c(c(N4CCC(N)C4)c(F)cc3c1=O)Oc1cc3ccccc3cc1-2` (centres unmarked) [compound 337]: the IC50 stood at 1 µM.

On to `CN1CCCC1CCNC(=O)c1cn2c3c(c(N4CCNC(c5cccnc5)C4)c(F)cc3c1=O)Oc1cc3ccccc3cc1-2` (centres unmarked) [compound 265], for which the IC50 came out at 1.75 µM.

Consider `CN(C)CCCNc1c(F)cc2c(=O)c(C(=O)NCCC3CCCN3C)cn3c2c1Oc1cc2ccccc2cc1-3` (centres unmarked) [compound 437], for which the IC50 was found to be 0.75 µM.

Take `O=C(NCCCN1CCOCC1)c1cn2c3cc4oc5cc([N+](=O)[O-])ccc5[nH]c4cc3oc3c(NCCN4CCCC4)c(F)cc(c1=O)c32` [compound 552]: the IC50 came to 0.375 µM.

For the compound `CN1CCCC1CCNC(=O)c1cn2c3cc4c(cc3oc3c(NCCN5CCOCC5)c(F)cc(c1=O)c32)c(=O)c1ccccc14` (centres unmarked) [compound 422], the IC50 came to 0.75 µM.

In the case of `O=C(CCN1CCOCC1)N[C@@H]1CCN(c2c(F)cc3c(=O)c(C(=O)NCCN4CCCC4)cn4c3c2Oc2cc3c(cc2-4)oc2ccccc23)C1` [compound 404], the IC50 was found to be 0.75 µM.

Regarding `CN(C)CCCCNc1c(F)cc2c(=O)c(C(=O)NCCN3CCCC3)cn3c2c1Oc1c-3ccc2ccccc12` [compound 498], the IC50 stood at 0.41 µM.

In the case of `NC1CCN(c2ccc3c(=O)c(C(=O)O)cn4c3c2Oc2cc3ccccc3cc2-4)C1` (centres unmarked) [compound 280], the IC50 turned out to be 1.75 µM.

The record behind these values is US7507727B2, “Substituted quinobenzoxazine analogs and methods of using thereof” (Cylene Pharmaceuticals, Inc., priority 2003, dated 2009).
